Data set [1] in a line: Cytotoxicity against human 9KB cells after 3 days. The note with it: 72 h, read-out: ID50 (the source's name). The data set is classed as functional.
Data set [2] relates to P388. Briefly: Cytotoxicity against mouse doxorubicin-sensitive P388 cells after 3 days. The data set is classed as functional. The note with it: P388, 72 h, read-out: ID50 (the source's name).
In data set [3] the test system is P388. Briefly: Cytotoxicity against mouse doxorubicin-resistant P388 cells after 3 days. It counts as functional. To be noted: P388, 72 h, read-out: ID50 (the source's name).
Data set [4] has as its system M5076. Briefly: Antitumor activity in mouse M5076 cells xenografted in BDF1 mouse at 1.25 mg/kg, ip administered from day 1 to 9 after transplantation. It counts as functional. The note with it: route intraperitoneal.
The test system of data set [5] is M5076. Briefly: Antitumor activity in mouse M5076 cells xenografted in BDF1 mouse at 0.63 mg/kg, ip administered from day 1 to 9 after transplantation. It counts as functional. To be noted: route intraperitoneal.
Data set [6] has as its system B16. Briefly: Antitumor activity in mouse B16 cells xenografted in BDF1 mouse at 5 mg/kg, ip administered from day 1 to 5 after transplantation. The data set is classed as functional. The note with it: route intraperitoneal.
The test system of data set [7] is B16. The experiment in a line: Antitumor activity in mouse B16 cells xenografted in BDF1 mouse at 0.62 mg/kg, ip administered from day 1 to 5 after transplantation. It counts as functional. The note with it: route intraperitoneal.
The subject of data set [8] is M5076. Briefly: Antitumor activity in mouse M5076 cells xenografted in BDF1 mouse at 0.31 mg/kg, ip administered from day 1 to 9 after transplantation. The data set is classed as functional. The note with it: route intraperitoneal.
For data set [9], the system named is B16. The experiment in a line: Antitumor activity in mouse B16 cells xenografted in BDF1 mouse at 2.50 mg/kg, ip administered from day 1 to 5 after transplantation. To be noted: dose 2.5 mg/kg; route intraperitoneal. The data set is classed as functional.
The subject of data set [10] is Mus musculus. Briefly: Toxicity in mouse B16 cells xenografted in BDF1 mouse at 10 mg/kg, ip administered from day 1 to 5 after transplantation. It counts as organism-based. Also on record: dose 10 mg/kg, route intraperitoneal. To be noted: in vivo.
Data set [11] has as its system Mus musculus. Briefly: Toxicity in mouse M5076 cells xenografted in BDF1 mouse at 10 mg/kg, ip administered from day 1 to 9 after transplantation. Details: dose 10 mg/kg, route intraperitoneal. To be noted: in vivo. It counts as organism-based.
For data set [12], the system named is M5076. Briefly: Antitumor activity in mouse M5076 cells xenografted in BDF1 mouse at 2.50 mg/kg, ip administered from day 1 to 9 after transplantation. It counts as functional. To be noted: dose 2.5 mg/kg; route intraperitoneal.
The test system of data set [13] is B16. The experiment in a line: Antitumor activity in mouse B16 cells xenografted in BDF1 mouse at 1.25 mg/kg, ip administered from day 1 to 5 after transplantation. It counts as functional. The note with it: route intraperitoneal.
Data set [14] has as its system M5076. Briefly: Antitumor activity in mouse M5076 cells xenografted in BDF1 mouse at 5 mg/kg, ip administered from day 1 to 9 after transplantation. The data set is classed as functional. To be noted: route intraperitoneal.

SMILES strings stand for the structures. In brackets after ≈: the same amount, converted by molar mass.

Consider `CC(C)=CCC/C(C)=C/COc1cc(O)c2c(O)c3c(cc2c1)CC(C)(O)CC3=O` (stereo unspecified) [VISMIONE D], for which the IC50 stood at 14 µg/mL (≈ 34.1 µM) in [1], 14 µg/mL (≈ 34.1 µM) with P388 [2] and 18 µg/mL (≈ 43.8 µM) with P388 [3].

In the case of `COc1cc2cc3c(c(O)c2c(O)c1/C=C/C(C)C)C(=O)CC(C)(O)C3` (stereo unspecified) [DEACETYLVISMIONE A], the IC50 worked out at 0.7 µg/mL (≈ 1.96 µM) in data set [1], 0.4 µg/mL (≈ 1.12 µM) with P388 [2] and 0.3 µg/mL (≈ 0.842 µM) with P388 [3].

On to `COc1cc2cc3c(c(O)c2c2c1C=CC(C)(C)O2)C(=O)CC(C)(OC(C)=O)C3` (stereo unspecified) [ACETYLVISMIONE B], for which the IC50 in data set [1] came to 42 µg/mL (≈ 106 µM); with P388 [2], 5 µg/mL (≈ 12.6 µM); with P388 [3], 2 µg/mL (≈ 5.04 µM).

Consider `CC(C)=CCC/C(C)=C/Cc1c(O)cc2cc3c(c(O)c2c1O)C(=O)CC(C)(O)C3` (stereo unspecified) [VISMIONE F], for which the values for the IC50 (in data set [1]; in the data set with P388 [2]; in the data set with P388 [3]) were 2.8 µg/mL (≈ 6.82 µM), 2 µg/mL (≈ 4.87 µM) and 13.5 µg/mL (≈ 32.9 µM), respectively.

As to `CC(=O)OC1(C)CC(=O)c2c(cc3cc(O)c(CC=C(C)C)c(O)c3c2O)C1` (stereo unspecified) [VISMIONE C], in [1], the IC50 was 2.1 µg/mL (≈ 5.46 µM).

In the case of `COc1cc2cc3c(c(O)c2c2c1C=CC(C)(C)O2)C(=O)CC(C)(O)C3` (stereo unspecified) [VISMIONE B], the values for the IC50 (in [1]; with P388 [2]; in the data set with P388 [3]) were 10 µg/mL (≈ 28.2 µM), 10 µg/mL (≈ 28.2 µM) and 3 µg/mL (≈ 8.46 µM), respectively.

Take `CC(=O)OC1(C)CC(=O)c2c(cc3cc(O)c(C/C=C(\C)CCC=C(C)C)c(O)c3c2O)C1` (stereo unspecified) [ACETYLVISMIONE F]: the IC50 in [1] was 1 µg/mL (≈ 2.21 µM); in the data set with P388 [2], 2.7 µg/mL (≈ 5.97 µM); with P388 [3], 3 µg/mL (≈ 6.63 µM).

For `COc1cc2cc3c(c(O)c2c(O)c1/C=C/C(C)C)C(=O)CC(C)(OC(C)=O)C3` (stereo unspecified) [VISMIONE A], the T/C (in general, the ratio of treated to control) came out at 119% in the data set on M5076 [4]; 115% in the data set on M5076 [5]; 148% in the data set with B16 [6]; 98% in the data set with B16 [7]; 111% in the data set on M5076 [8]; 115% in the data set with B16 [9]. In addition, the T/C result in the data set with Mus musculus [10] is “Toxic”; in the data set with Mus musculus [11], “Toxic”; with M5076 [12] it was 140%; in the data set with B16 [13], 112%; with M5076 [14], 145%. The IC50 in [1] is 0.25 µg/mL (≈ 0.627 µM); in the data set on P388 [2] it was 0.45 µg/mL (≈ 1.13 µM); in the data set with P388 [3], 1.1 µg/mL (≈ 2.76 µM).

In the case of `CC(=O)OC1(C)CC(=O)c2c(c(C/C=C(\C)CCC=C(C)C)c3cc(O)cc(O)c3c2O)C1` (stereo unspecified) [VISMIONE G], the IC50 worked out at 3.2 µg/mL (≈ 7.07 µM) in data set [1], 30 µg/mL (≈ 66.3 µM) in the data set with P388 [2] and 30 µg/mL (≈ 66.3 µM) in the data set on P388 [3].

Turning to `COc1cccc2c1C(=O)c1c(O)c3c(c(O)c1C2=O)C[C@@](O)(C(=O)CO)C[C@@H]3O[C@H]1C[C@H](N)[C@H](O)[C@H](C)O1` [DOXORUBICIN], the results for the IC50 (in data set [1]; in the data set with P388 [2]; with P388 [3]) were 0.2 µg/mL (≈ 0.368 µM), 0.0055 µg/mL (≈ 0.0101 µM) and 0.5 µg/mL (≈ 0.92 µM), respectively.

Turning to `CC(=O)OC1(C)CC(=O)c2c(cc3cc(OC/C=C(\C)CCC=C(C)C)cc(O)c3c2O)C1` (stereo unspecified) [ACETYLVISMIONE D], the IC50 was 5 µg/mL (≈ 11 µM) in data set [1] and 1.8 µg/mL (≈ 3.98 µM) with P388 [2].
